Results published in US12616669B2, “Methods and chemical compositions for treating skin conditions by providing long lasting skin pH control for improving skin barrier function” (Soteri Skin, Inc., priority 2021, dated 2026).
Where two headings read alike, the source gives them in different places.

How the values were obtained:
[1] = in vivo
[2] = cited from earlier work
[3] = Evaluation of various buffering systems on human skin; details: sensitive, healthy or eczema affected skin

Row | Structure (SMILES) | skin irritation / tolerability [1] | also measured
1 | O=C(O)CC(O)(CC(=O)O)C(=O)O [Citric acid] | well tolerated on healthy and eczema affected skin | 
2 | O=C(O)[C@H](O)[C@@H](O)[C@H](O)[C@H](O)CO [Gluconic acid] | well tolerated on healthy and eczema affected skin | 
3 | N[C@@H](CC(=O)O)C(=O)O [aspartic acid] |  | pKa [2]: around 3.65
4 | O=C(O)CO [glycolic acid] |  | skin irritation / tolerability [3]: may be irritating for sensitive skin
5 | CC(O)C(=O)O (centres unmarked) [lactic acid] | may be irritating for sensitive skin | 
